We go through 26 compounds from US20240025906A1 (NEURON23, INC., priority 2022, published 2024).

pIC50, pKd: −log10 of the molar value.

For experiment [1], the system named is JAK1/TYK2 pSTAT5 (Tyr694/699) in THP-1 cell line. In words: IFNa-stimulated JAK1/TYK2 pSTAT5 (Tyr694/699) inhibition cellular assay, AlphaLISA. It is filed as cell-based. Conditions: Homo sapiens; THP-1 cells, IFNa-stimulated, AlphaLISA (Assay B); read-out: Cellular_THP1_IFNa-pSTATS_TYK2. In short, it runs like this:
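The readout is AlphaLISA signal at 615 nm for phospho-STAT5 in THP-1 lysates after IFNa stimulation (added at 100 ng/mL, 30 min, 37 °C). Cells had compound for 1 h beforehand across eight 6-fold concentrations up to 10000 nM final. IC50s are 4PL fits with bottom and Hill slope constrained.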
For orientation: Alpha assays give light when donor and acceptor beads are brought close together.

The target of the next experiment is T1, TYK2 JH2 (Homo sapiens, UniProt P29597).
T1 construct: purchased DiscoverX (KINOMEscan KdELECT service); host or cells: E. coli BL21-derived (T7 phage display) or HEK-293
In words: TYK2 JH2 binding assay (KINOMEscan KdELECT competitive binding). As to conditions: TYK2 JH2 domain, DiscoverX KINOMEscan KdELECT (Assay A); read-out: Biochemical TYK2_DiscoverX_JH2_BND_Kd. The gist of the method:
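The assay measures displacement of DNA- or phage-tagged TYK2 pseudokinase domain from an affinity resin; compound binding lowers the amount captured, read by qPCR. Incubation lasts 1 h at room temperature.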

T1 sequence (P29597 589-875 limits assumed): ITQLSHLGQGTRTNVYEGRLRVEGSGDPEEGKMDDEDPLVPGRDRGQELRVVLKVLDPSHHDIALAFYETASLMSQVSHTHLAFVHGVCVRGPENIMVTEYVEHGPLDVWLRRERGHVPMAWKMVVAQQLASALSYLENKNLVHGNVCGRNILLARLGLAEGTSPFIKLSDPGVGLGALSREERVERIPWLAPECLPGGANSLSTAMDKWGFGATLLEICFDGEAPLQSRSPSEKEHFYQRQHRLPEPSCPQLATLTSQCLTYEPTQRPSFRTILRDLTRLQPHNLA

On to `CNc1ncc(-c2nc3cc(O[C@H]4C[C@H](COC)C4)ccc3o2)c2cc(NC(=O)C3CC3)ncc12` [Example 348, N-(5-(5-((1r,3r)-3-(methoxymethyl)cyclobutoxy)benzo[d]oxazol-2-yl)-8-(methylamino)-2,7-naphthyridin-3-yl)cyclopropanecarboxamide], for which, in experiment [1], the pIC50 is at least 6.30. Also, the pKd on TYK2 JH2 is at least 7.00.
As to `CNc1ncc(-c2nc3cc(OCC45CCCN4CCC5)ccc3o2)c2cc(NC(=O)C3CC3)ncc12` [Example 349, N-(8-(methylamino)-5-(5-((tetrahydro-1H-pyrrolizin-7a(5H)-yl)methoxy)benzo[d]oxazol-2-yl)-2,7-naphthyridin-3-yl)cyclopropanecarboxamide], the pIC50 in experiment [1] was at least 6.30. The pKd on TYK2 JH2 is at least 7.00.
In the same order, the values of `CNc1ncc(-c2nc3cc(O[C@@H](C)COC)ccc3o2)c2cc(NC(=O)C3CC3)ncc12` [Example 350, (S)—N-(5-(5-((1-methoxypropan-2-yl)oxy)benzo[d]oxazol-2-yl)-8-(methylamino)-2,7-naphthyridin-3-yl)cyclopropanecarboxamide] are at least 6.30 and at least 7.00.
On to `CNc1ncc(-c2nc3cc(O[C@H](C)COC)ccc3o2)c2cc(NC(=O)C3CC3)ncc12` [Example 351, (R)—N-(5-(5-((1-methoxypropan-2-yl)oxy)benzo[d]oxazol-2-yl)-8-(methylamino)-2,7-naphthyridin-3-yl)cyclopropanecarboxamide], for which the pIC50 in experiment [1] was at least 6.30. The pKd at TYK2 JH2 is at least 7.00.
In the same order, the values of `CNc1ncc(-c2nc3cc(OCC(C)(C)N4CCOCC4)ccc3o2)c2cc(NC(=O)C3CC3)ncc12` [Example 352, N-(5-(5-(2-methyl-2-morpholinopropoxy)benzo[d]oxazol-2-yl)-8-(methylamino)-2,7-naphthyridin-3-yl)cyclopropanecarboxamide] are at least 6.30 and at least 7.00.
As for `CNc1ncc(-c2nc3cc(OCC[S+](C)[O-])ccc3o2)c2cc(NC(=O)C3CC3)ncc12` (stereo not shown) [Example 353, N-(8-(methylamino)-5-(5-(2-(methylsulfinyl)ethoxy)benzo[d]oxazol-2-yl)-2,7-naphthyridin-3-yl)cyclopropanecarboxamide], in experiment [1], the pIC50 was at least 6.30. On TYK2 JH2, the pKd is at least 7.00.
`CNc1ncc(-c2nc3cc(OCCS(C)(=O)=O)ccc3o2)c2cc(NC(=O)C3CC3)ncc12` [Example 354, N-(8-(methylamino)-5-(5-(2-(methylsulfonyl)ethoxy)benzo[d]oxazol-2-yl)-2,7-naphthyridin-3-yl)cyclopropanecarboxamide]: in experiment [1], the pIC50 was at least 6.30. Moreover, the pKd on TYK2 JH2 is at least 7.00.
In the same order, the values of `CNc1ncc(-c2nc3ccc(N4CCOCC4)cc3o2)c2cc(NC(=O)C3CC3)ncc12` [Example 355, N-(8-(methylamino)-5-(6-morpholinobenzo[d]oxazol-2-yl)-2,7-naphthyridin-3-yl)cyclopropanecarboxamide] are at least 6.30 and at least 7.00.
Taken in the same sequence, the figures for `CNc1ncc(-c2nc3cnccc3o2)c2cc(NC(=O)C3CC3)ncc12` [Example 356, N-(8-(methylamino)-5-(oxazolo[4,5-c]pyridin-2-yl)-2,7-naphthyridin-3-yl)cyclopropanecarboxamide] were at least 6.30 and at least 7.00.
Taken in the same sequence, the figures for `CNc1ncc(-c2nc3ccncc3o2)c2cc(NC(=O)C3CC3)ncc12` [Example 357, N-(8-(methylamino)-5-(oxazolo[5,4-c]pyridin-2-yl)-2,7-naphthyridin-3-yl)cyclopropanecarboxamide] were below 6.30 and at least 7.00.
`CNc1ncc(-c2nc3ncccc3o2)c2cc(NC(=O)C3CC3)ncc12` [Example 358, N-(8-(methylamino)-5-(oxazolo[4,5-b]pyridin-2-yl)-2,7-naphthyridin-3-yl)cyclopropanecarboxamide]: in experiment [1], the pIC50 is at least 6.30. Moreover, at TYK2 JH2, the pKd is at least 7.00.
In the same order, the values of `CNc1ncc(-c2nc3cc(C4CCNCC4)ccc3o2)c2cc(NC(=O)C3CC3)ncc12` [Example 359, N-(8-(methylamino)-5-(5-(piperidin-4-yl)benzo[d]oxazol-2-yl)-2,7-naphthyridin-3-yl)cyclopropanecarboxamide 2,2,2-trifluoroacetate] are at least 6.30 and at least 7.00.
For `CNc1ncc(-c2nc3cc(C4CCN(C5COC5)CC4)ccc3o2)c2cc(NC(=O)C3CC3)ncc12` [Example 360, N-(8-(methylamino)-5-(5-(1-(oxetan-3-yl)piperidin-4-yl)benzo[d]oxazol-2-yl)-2,7-naphthyridin-3-yl)cyclopropanecarboxamide], in experiment [1], the pIC50 was at least 6.30. For the same compound, on TYK2 JH2, the pKd was at least 7.00.
As to `CNc1ncc(-c2nc3cc(C4CCN(C)CC4)ccc3o2)c2cc(NC(=O)C3CC3)ncc12` [Example 361, N-(8-(methylamino)-5-(5-(1-methylpiperidin-4-yl)benzo[d]oxazol-2-yl)-2,7-naphthyridin-3-yl)cyclopropanecarboxamide], in experiment [1], the pIC50 was at least 6.30. Moreover, the pKd on TYK2 JH2 was at least 7.00.
Taken in the same sequence, the figures for `[2H]C([2H])([2H])Nc1ncc(-c2nc3cc(OC)ccc3o2)c2cc(NC(=O)C3CC3)ncc12` [Example 362, N-(5-(5-methoxybenzo[d]oxazol-2-yl)-8-((methyl-d3)amino)-2,7-naphthyridin-3-yl)cyclopropanecarboxamide] were at least 6.30 and at least 7.00.
Taken in the same sequence, the figures for `[2H]C([2H])([2H])Nc1ncc(-c2nc3c(OC)cccc3o2)c2cc(NC(=O)C3CC3)ncc12` [Example 363, N-(5-(4-methoxybenzo[d]oxazol-2-yl)-8-((methyl-d3)amino)-2,7-naphthyridin-3-yl)cyclopropanecarboxamide] were at least 6.30 and at least 7.00.
In the same order, the values of `[2H]C([2H])([2H])Nc1ncc(-c2nc3cc(N4CCOCC4)ccc3o2)c2cc(NC(=O)C3CC3)ncc12` [Example 364, N-(8-((methyl-d3)amino)-5-(5-morpholinobenzo[d]oxazol-2-yl)-2,7-naphthyridin-3-yl)cyclopropanecarboxamide] are at least 6.30 and at least 7.00.
With `[2H]C([2H])([2H])Nc1ncc(-c2nc3cc(OC([2H])([2H])[2H])ccc3o2)c2cc(NC(=O)C3CC3)ncc12` [Example 365, N-(5-(5-(methoxy-d3)benzo[d]oxazol-2-yl)-8-((methyl-d3)amino)-2,7-naphthyridin-3-yl)cyclopropanecarboxamide], the pIC50 in experiment [1] was at least 6.30. Further, the pKd on TYK2 JH2 is at least 7.00.
In the same order, the values of `CCNc1ncc(-c2nc3cc(N4CCO[C@@H](C)C4)ccc3o2)c2cc(NC(=O)C3CC3)ncc12` [Example 366, (S)—N-(8-(ethylamino)-5-(5-(2-methylmorpholino)benzo[d]oxazol-2-yl)-2,7-naphthyridin-3-yl)cyclopropanecarboxamide] are at least 6.30 and at least 7.00.
In the same order, the values of `COc1ccc2oc(-c3cnc(NC4CC4)c4cnc(NC(=O)C5CC5)cc34)nc2c1` [Example 367, N-(8-(cyclopropylamino)-5-(5-methoxybenzo[d]oxazol-2-yl)-2,7-naphthyridin-3-yl)cyclopropanecarboxamide] are at least 6.30 and at least 7.00.
Taken in the same sequence, the figures for `C[C@H]1CN(c2ccc3oc(-c4cnc(N)c5cnc(NC(=O)C6CC6)cc45)nc3c2)CCO1` [Example 368, (S)—N-(8-amino-5-(5-(2-methylmorpholino)benzo[d]oxazol-2-yl)-2,7-naphthyridin-3-yl)cyclopropanecarboxamide] were at least 6.30 and at least 7.00.
Turning to `COc1ccc2oc(-c3cnc(N)c4cnc(NC(=O)C5CC5)cc34)nc2c1` [Example 369, N-(8-amino-5-(5-methoxybenzo[d]oxazol-2-yl)-2,7-naphthyridin-3-yl)cyclopropanecarboxamide], the pIC50 in experiment [1] is at least 6.30. Further, the pKd at TYK2 JH2 was at least 7.00.
Take `COc1ccc2oc(-c3cnc(NCC(F)F)c4cnc(NC(=O)C5CC5)cc34)nc2c1` [Example 370, N-(8-((2,2-difluoroethyl)amino)-5-(5-methoxybenzo[d]oxazol-2-yl)-2,7-naphthyridin-3-yl)cyclopropanecarboxamide]: the pIC50 in experiment [1] was at least 6.30. Moreover, the pKd on TYK2 JH2 is at least 7.00.
Taken in the same sequence, the figures for `O=C(Nc1cc2c(-c3nc4ccccc4o3)cnc(O)c2cn1)C1CC1` [Example 371, N-(5-(benzo[d]oxazol-2-yl)-8-hydroxy-2,7-naphthyridin-3-yl)cyclopropanecarboxamide] were below 6.30 and at least 7.00.
In the same order, the values of `CNc1ncc(-c2nc3cc(OC)ccc3o2)c2cc(Nc3ccccn3)ncc12` [Example 372, 4-(5-methoxybenzo[d]oxazol-2-yl)-N^1-methyl-N^6-(pyridin-2-yl)-2,7-naphthyridine-1,6-diamine] are at least 6.30 and at least 7.00.
Taken in the same sequence, the figures for `CNc1ncc(-c2nc3cc(OC)ccc3o2)c2cc(Nc3ccc(F)cn3)ncc12` [Example 374, N^6-(5-fluoropyridin-2-y1)-4-(5-methoxybenzo[d]oxazol-2-yl)-N^1-methyl-2,7-naphthyridine-1,6-diamine] were below 6.30 and at least 7.00.
